Values of other authors in patent publication US20050249757A1, “Pharmaceutical cream formulations” (Glenmark Pharmaceuticals Limited, priority 2004, published 2005).

Columns and labels:
[1] = test system: rabbit skin; conditions: described as practically nonirritating
[2] = test system: human subjects; conditions: 50 human subjects, total of 15 applications; manufacturer's brochure
[3] = target: macrophilin-12 (FKBP-12) (Homo sapiens, UniProt P62942)
[4] = test system: human T cells; conditions: Th1-type and Th2-type cytokines

Sequence of macrophilin-12 (FKBP-12) (P62942 whole entry): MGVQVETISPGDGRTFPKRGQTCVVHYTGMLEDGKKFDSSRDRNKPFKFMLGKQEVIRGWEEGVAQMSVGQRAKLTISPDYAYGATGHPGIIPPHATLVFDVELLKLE

Structure (SMILES) | PII (skin irritation) [1] | Dermal irritation and sensitization in repeated insult patch test [2] | Binding affinity to macrophilin-12 (FKBP-12) [3] | Concentration inhibiting Interleukin-2, interferon gamma, Interleukin-4 and Interleukin-10 cytokine synthesis [4]
CN1CCCC1=O [Pharmasolve, N-methyl-2-pyrrolidone] | 0.5 | neither a primary dermal irritant nor a sensitizer | – | –
CC[C@@H]1/C=C(\C)C[C@H](C)C[C@H](OC)[C@H]2O[C@@](O)(C(=O)C(=O)N3CCCC[C@H]3C(=O)O[C@H](/C(C)=C/[C@@H]3CC[C@H](Cl)[C@H](OC)C3)[C@H](C)[C@@H](O)CC1=O)[C@H](C)C[C@@H]2OC [pimecrolimus, (1R,9S,12S,13R,14S,17R,18E,21 S,23S,24R,25S,27R)-12-[(1E)-2-{(1R,3R,4S)-4-chloro-3-methoxycyclohexyl}-1-methylvinyl]-17-ethyl-1,14-dihydroxy-23,25-dimethoxy-13,19,21,27-tetramethyl-11,28-dioxa-4-aza-tricyclo[22.3.1.04,9]octacos-18-ene-2,3,10,16-tetraone] | – | – | high affinity | nanomolar concentrations
